{
  "source": "patent US20100130603A1",
  "about": "“MEDICAMENT FOR PROPHYLACTIC AND THERAPEUTIC TREATMENT OF DERMATOSIS RESULTING FROM EXCESSIVELY ADVANCED KERATINIZATION” (KYOTO UNIVERSITY, priority 2007, published 2010)",
  "key": {"Serca2 gene": {"test_system": "Serca2 gene", "experiment": "Serca2 mRNA induction in normal human epidermal keratinocytes (NHEK), Northern blotting", "format": "cell-based", "details": "for strength of Serca2 gene inducing action: comparison among inducers", "method": "Normal human epidermal keratinocytes (NHEK) were cultured in a serum-free medium (KGM medium) from which only hydrocortisone was excluded. A test substance dissolved in dimethyl sulfoxide (DMSO) as a solvent was added to the medium and culture was continued, and amount of mRNA of Serca2 gene in the epidermal keratinocytes was quantified by Northern blotting after 3, 6, and 9 hours. […] RNA was extracted 0, 3, 6, 12, 18, 24, and 48 hours after the addition of WiN55,212-2 to the epidermal keratinocytes, and expression of Serca2 gene was observed by Northern blotting.\nTest substances including various kinds of vanilloid agonists were examined in the same manner as that of Example 1."}, "ATP2A protein [1]": {"test_system": "ATP2A protein", "experiment": "ATP2A protein localization by immunostaining in skins of healthy persons transplanted to nude mice", "format": "in vivo", "details": "healthy human skin on nude mice, optimum concentration applied every day for 5 days", "source_text": "Skins of healthy persons were transplanted to nude mice, and after one week under acceptance of graft, optimum concentrations of dihomo-γ-linolenoyldopamine, WIN55,212-2, DPTHF as a vanilloid antagonist, and DMSO (control) were each applied every day for 5 days. The skin samples where the application was made were fixed after biopsy, and localization of ATP2A protein was identified by immunostaining."}, "[2]": {"test_system": "skin samples of healthy persons", "experiment": "Pathological changes by HE staining in skin samples of healthy persons under organ culture", "format": "cell-based", "details": "healthy human skin organ culture, optimum concentration, fixed after 24 to 48 hours", "method": "Optimum concentrations of dihomo-γ-linolenoyldopamine, WIN55,212-2, DPTHF as a vanilloid antagonist, and DMSO (control) were each added to skin samples of healthy persons and kept under a state of organ culture in the same manner as in Example 3. The skin samples were fixed after 24 to 48 hours, and pathological changes were observed by HE staining."}, "ATP2A2 mRNA": {"test_system": "ATP2A2 mRNA", "experiment": "ATP2A2 mRNA expression in epidermal keratinocytes of Darier's disease patients, Northern blotting", "format": "cell-based, human", "details": "keratinocyte cell lines of 3 Darier's disease patients, 6 hours after treatment, 10^−6 to 10^−9 mol", "method": "Epidermal keratinocytes were collected from skins of pathological lesions of 3 Darier's disease patients, and cultured to establish cell lines. The cells were treated with WIN55,212-2 or a vanilloid agonist (dihomo-γ-linolenoyldopamine or eicosa-11Z,14Z-dienoyldopamine), and after 6 hours, RNAs were extracted and the expression of ATP2A2 mRNA was observed by Northern blotting. […] When the epidermal keratinocytes of the other two Darie's disease patients were used, similar results were obtained."}, "ATP2A protein [3]": {"test_system": "ATP2A protein", "experiment": "ATP2A protein localization by immunostaining in human skin under organ culture", "format": "cell-based", "details": "optimum concentration, fixed after 24 hours", "method": "Human skin under a state of organ culture was added with optimum concentration of dihomo-γ-linolenoyldopamine or DMSO (control), and after 24 hours later, the skin was fixed, and then localization of ATP2A protein, which is the causative protein of Darie's disease, was identified by immunostaining."}, "[4]": {"test_system": "three-dimensionally cultured skin model of Darie's disease patients' keratinocytes", "experiment": "Darie's disease model skin by three-dimensional culture", "format": "cell-based, human", "details": "added to the medium; keratinocytes with fibroblasts or interstitial components; 5 to 11 days", "method": "In order to construct a model skin of Darie's disease which is readily reproducible and can be repetitively applied for assays, a […] model skin was constructed by three-dimensional culture of a combination of cultured epidermal keratinocytes and fibroblasts of Darie's disease patients, or three-dimensional culture of a combination of cultured epidermal keratinocytes Darie's disease patients and interstitial components. WIN55,212-2 or dihomo-γ-linolenoyldopamine was added to the medium of the above model skin to confirm the actions thereof. […] With the DMSO treatment as a control, individual keratinization and acantholysis remained, and pathological conditions corresponding to the pathological pictures of Darie's disease were observed."}, "[5]": {"test_system": "skin samples of Darie's disease patients", "experiment": "Pathological examination of skin of Darie's disease patients transplanted to nude mice, applied 9 days", "format": "in vivo, human skin transplanted to nude mice", "details": "Darie's disease patient skin on nude mice, applied for 9 days in DMSO", "method": "Skin samples of Darie's disease patients with an area of 1 to 2 cm square were transplanted to nude mice, and acceptance of graft was confirmed after 7 days. Thereafter WIN55,212-2 or dihomo-γ-linolenoyldopamine was applied for 5 to 9 days using dimethyl sulfoxide (DMSO) as a solvent, and effectiveness of the drugs was determined on the basis of pathological examinations. This method is effective for successful determination of efficacy of a drug under a condition closest to the affected patient's skin. […] Where a solvent (DMSO) was applied as the control, dyskeratosis, parakeratosis, and blistering remained, the granular layer remained disappeared, and pathological pictures of Darie's disease were observed even after the transplantation. It is considered that the medicament of the present invention has sufficient effectiveness on inflammatory keratosis such as psoriasis vulgaris, as well as on Darie's disease, because potent therapeutic effect that achieves successful recover of even the formation of normal granular layer was observed when the cannabinoid agonist was applied."}, "[6]": {"test_system": "skin samples of Darie's disease patients", "experiment": "Pathological changes by HE staining in skin of Darie's disease patients transplanted to nude mice, applied 5 days", "format": "in vivo, human skin transplanted to nude mice", "details": "Darie's disease patient skin on nude mice, optimum concentration applied every day for 5 days", "source_text": "Skin samples of Darie's disease patients were collected under informed consent of the patients, and transplanted to nude mice, and after one week under acceptance of graft, optimum concentrations of dihomo-γ-linolenoyldopamine, WIN55,212-2, and DMSO (control) were each applied to the skin samples every day for 5 days. The skins where the application was made were fixed after biopsy, and pathological changes were observed by HE staining."}, "[7]": {"details": "vanilloid agonists, same manner as Example 1"}, "[8]": {"details": "synthetic cannabinoid agonists in DMSO, Northern blotting after 3, 6 and 9 hours"}},
  "data": [
    {"smiles": "CCCCC/C=C\\C/C=C\\C/C=C\\CCCCC(=O)NCCc1ccc(O)c(O)c1", "note": "[γ-linolenoyldopamine]", "values": [
      {"measurement": "strength of Serca2 gene inducing action", "setting": "Serca2 gene; vanilloid agonists", "result": "potent inducing action"},
      {"measurement": "induction of Serca2 gene (mRNA)", "setting": "Serca2 gene; [7]", "result": "induced the Serca2 gene"}
    ]},
    {"smiles": "CC/C=C\\C/C=C\\C/C=C\\C/C=C\\C/C=C\\CCCC(=O)NCCc1ccc(O)c(O)c1", "note": "[eicosapentaenoyldopamine]", "values": [
      {"measurement": "induction of Serca2 gene (mRNA)", "setting": "Serca2 gene; [7]", "result": "induced the Serca2 gene"}
    ]},
    {"smiles": "CC/C=C\\C/C=C\\C/C=C\\C/C=C\\C/C=C\\C/C=C\\CCC(=O)NCCc1ccc(O)c(O)c1", "note": "[docosahexaenoyldopamine]", "values": [
      {"measurement": "induction of Serca2 gene (mRNA)", "setting": "Serca2 gene; [7]", "result": "induced the Serca2 gene"}
    ]},
    {"smiles": "c1ccc(C2(c3ccccc3)CCCO2)cc1", "note": "[DPTHF, diphenyltetrahydrofuran]", "values": [
      {"measurement": "localization/expression of ATP2A protein by immunostaining", "setting": "ATP2A protein [1]", "result": "decrease of expression of ATP2A2 was observed"},
      {"measurement": "inducing action of vanilloid agonists on Serca2 gene expression when the vanilloid antagonist coexisted", "setting": "Serca2 gene; coexisting with vanilloid agonists (FIG. 7: dihomo-γ-linolenoyldopamine+DPTHF)", "result": "disappeared"},
      {"measurement": "pathological changes by HE staining", "setting": "[2]", "result": "pathological images similar to those of Darie's disease such as individual keratinization and acantholysis were observed"}
    ]},
    {"smiles": "CCCCC/C=C\\C/C=C\\CCCCCCCCCC(=O)NCCc1ccc(O)c(O)c1", "note": "[eicosa-11Z,14Z-dienoyldopamine]", "values": [
      {"measurement": "strength of Serca2 gene inducing action", "setting": "Serca2 gene; vanilloid agonists", "result": "potent inducing action"},
      {"measurement": "induction of Serca2 gene (mRNA)", "setting": "Serca2 gene; [7]", "result": "induced the Serca2 gene"},
      {"measurement": "expression of ATP2A2 mRNA", "setting": "ATP2A2 mRNA", "result": "concentration-dependent promotion of expression of ATP2A2 was observed"}
    ]},
    {"smiles": "CCCCC/C=C\\C/C=C\\C/C=C\\CCCCCCC(=O)NCCc1ccc(O)c(O)c1", "note": "[dihomo-γ-linolenoyldopamine]", "values": [
      {"measurement": "localization/expression of ATP2A protein by immunostaining", "setting": "ATP2A protein [1]", "result": "excessively advanced expression in the basal layer was observed"},
      {"measurement": "localization/expression of ATP2A protein by immunostaining", "setting": "ATP2A protein [3]", "result": "excessively advanced expression in the basal layer was observed"},
      {"measurement": "strength of Serca2 gene inducing action", "setting": "Serca2 gene; vanilloid agonists", "result": "potent inducing action"},
      {"measurement": "induction of Serca2 gene (mRNA)", "setting": "Serca2 gene; [7]", "result": "induced the Serca2 gene"},
      {"measurement": "pathological pictures in three-dimensional model skin", "setting": "[4]", "result": "recovery of three-dimensional skin having quality similar to that of healthy skin was observed"},
      {"measurement": "pathological changes by HE staining", "setting": "[2]", "result": "remained in a state of physiological skin not distinguishable from healthy skins"},
      {"measurement": "pathological pictures (effectiveness by pathological examination)", "setting": "[5]", "result": "dyskeratosis and blistering disappeared, and the granular layer also slightly recovered, but keratinization accompanied by parakeratosis slightly remained"},
      {"measurement": "pathological changes by HE staining", "setting": "[6]", "result": "these pathological changes characteristic to Darie's disease disappeared"},
      {"measurement": "expression of ATP2A2 mRNA", "setting": "ATP2A2 mRNA", "result": "concentration-dependent promotion of expression of ATP2A2 was observed"}
    ]},
    {"smiles": "CCCCC/C=C\\C/C=C\\C/C=C\\C/C=C\\CCCCCC(=O)NCCc1ccc(O)c(O)c1", "note": "[docosatetra-7Z,10Z,13Z,16Z-enoyldopamine]", "values": [
      {"measurement": "induction of Serca2 gene (mRNA)", "setting": "Serca2 gene; [7]", "result": "induced the Serca2 gene"}
    ]},
    {"smiles": "COc1ccc2c(c1)c(CC(=O)N1CCOCC1)c(C)n2C(=O)c1ccc(Cl)cc1", "note": "[BML-190]", "values": [
      {"measurement": "induction of Serca2 gene (mRNA)", "setting": "Serca2 gene; [8]", "result": "induction of Serca2 gene was induced"}
    ]},
    {"smiles": "CCCCCCCCCC(=O)O[C@@H]1[C@@H](C)[C@@]2(O)[C@@H](C=C(CO)C[C@@]3(O)C(=O)C(C)=C[C@@H]23)[C@@H]2C(C)(C)[C@]12OC(=O)CCCCCCCCC", "note": "[4-α-phorbol 12,13-didecanoate (4α-PDD), 4-α-phorbol 12,13-didecanoate]", "values": [
      {"measurement": "induction of Serca2 gene (mRNA)", "setting": "Serca2 gene; [7]", "result": "induced the Serca2 gene"}
    ]},
    {"smiles": "NCCOB(c1ccccc1)c1ccccc1", "note": "[2-aminoethoxydiphenyl borate (2-APB), 2-aminoethoxydiphenyl borate]", "values": [
      {"measurement": "induction of Serca2 gene (mRNA)", "setting": "Serca2 gene; [7]", "result": "induced the Serca2 gene"}
    ]},
    {"smiles": "Cc1c(C(=O)c2cccc3ccccc23)c2cccc3c2n1[C@H](CN1CCOCC1)CO3", "note": "[WIN55,212-2]", "values": [
      {"measurement": "localization/expression of ATP2A protein by immunostaining", "setting": "ATP2A protein [1]", "result": "excessively advanced expression in the basal layer was observed"},
      {"measurement": "induction of Serca2 gene (mRNA)", "setting": "Serca2 gene; [8]", "result": "induction of Serca2 gene was induced"},
      {"measurement": "pathological pictures in three-dimensional model skin", "setting": "[4]", "result": "recovery of three-dimensional skin having quality similar to that of healthy skin was observed"},
      {"measurement": "pathological changes by HE staining", "setting": "[2]", "result": "remained in a state of physiological skin not distinguishable from healthy skins"},
      {"measurement": "pathological pictures (effectiveness by pathological examination)", "setting": "[5]", "result": "dyskeratosis, parakeratosis, and blistering were disappeared, and normal keratinization was observed with recovered granular layer"},
      {"measurement": "pathological changes by HE staining", "setting": "[6]", "result": "these pathological changes characteristic to Darie's disease disappeared"},
      {"measurement": "expression of ATP2A2 mRNA", "setting": "ATP2A2 mRNA", "result": "concentration-dependent promotion of expression of ATP2A2 was observed"}
    ]},
    {"smiles": "CCCCC/C=C\\C/C=C\\C/C=C\\C/C=C\\CCCC(=O)N[C@H](C)CO", "note": "[methanandamide]", "values": [
      {"measurement": "induction of Serca2 gene (mRNA)", "setting": "Serca2 gene; [8]", "result": "induction of Serca2 gene was induced"}
    ]}
  ]
}
